Test results taken from the supplement of paper PMC11451515.

How the values were obtained:
SEM cells [1] = assay: AUC of viability dose-response curve (% viability x log10 dose units); higher = less sensitive; details: 48 h
Procedure, shortened: (§1)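 Area under the curve was integrated by trapezoidal rule from a log-logistic fit of normalised viability, with curves exceeding full viability scaled and quality-control failures removed. The fit had four parameters over log10 doses. Viability came from CellTiter-Glo One luminescence, normalised per plate to DMSO and cell-free wells, after leukemia cells adapted to each medium (500 or 1000 cells/well, 1536-well plates) were exposed to library compounds in DMSO for 48 h at 37°C. The 11 threefold doses ran from 47 μM to 0.79 nM.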

NOMO1 [2] = assay: as above; details: 48 h
Procedure, shortened: as §1

P12-Ichikawa [3] = assay: as above; details: 48 h
Procedure, shortened: as §1

SEM cells [4] = assay: cell viability relative to DMSO control; higher = less cytotoxic; details: 48 h
Procedure, shortened: (§2)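 Viability is a per-plate percentage relative to DMSO wells, with cell-free wells as background. CellTiter-Glo One luminescence was read after 48 h at 37°C on 1536-well plates (5 μl) of NOMO1 or SEM (500 cells/well) or P12-Ichikawa (1000 cells/well) leukemia cells. The cells had been adapted for at least four passages in each medium and pin-dosed with library compounds in DMSO from 47 μM to 0.79 nM in 11 threefold steps.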

NOMO1 [5] = assay: as above; details: HPLM + 10% dialyzed FBS, 48 h
Procedure, shortened: as §2

P12-Ichikawa [6] = assay: as above; details: 48 h
Procedure, shortened: as §2

C[C@@H]1CC[C@H]2[C@@H](C)C(=O)O[C@@H]3O[C@@]4(C)CC[C@@H]1[C@]32OO4
AUC of viability dose-response curve
Details	NOMO1 [2]	P12-Ichikawa [3]	SEM cells [1]
HPLM + 10% dialyzed FBS	435	440	436
RPMI 5 mM glucose + 10% FBS	419	412	424
RPMI 5 mM glucose + 10% dialyzed FBS	451	416	418

cell viability [%], SEM cells [4]
Details	RPMI 5 mM glucose + 10% FBS	RPMI 5 mM glucose + 10% dialyzed FBS
0.000781 µM	115	132
0.00234 µM	144	113
0.00702 µM	118	120
0.0211 µM	134	118
0.0632 µM	109	110
0.19 µM	108	100
0.569 µM	115	97.6
1.71 µM	87.6	77.3
5.12 µM	91.7	72.2
15.4 µM	116	112
46.1 µM	114	126

CN1CCN(CC1)C2=C3OCN(C)N4\C=C(C(O)=O)/C(=O)C(=C34)C=C2F
AUC of viability dose-response curve
Details	NOMO1 [2]	P12-Ichikawa [3]	SEM cells [1]
HPLM + 10% dialyzed FBS	454	459	471
RPMI 5 mM glucose + 10% FBS	450	459	466
RPMI 5 mM glucose + 10% dialyzed FBS	465	465	434

SEM cells [4], HPLM + 10% dialyzed FBS
Details	cell viability [%]
0.000781 µM	66.2
0.00234 µM	116
0.00702 µM	120
0.0211 µM	124
0.0632 µM	115
0.19 µM	115
0.569 µM	117
1.71 µM	116
5.12 µM	102
15.4 µM	105
46.1 µM	82

Fc1ccc([C@@H]2CCNC[C@H]2COc2ccc3c(c2)OCO3)cc1
AUC of viability dose-response curve
Details	NOMO1 [2]	P12-Ichikawa [3]	SEM cells [1]
HPLM + 10% dialyzed FBS	447	396	417
RPMI 5 mM glucose + 10% FBS	463	337	407
RPMI 5 mM glucose + 10% dialyzed FBS	455	393	416

SEM cells [4], HPLM + 10% dialyzed FBS
Details	cell viability [%]
0.000781 µM	119
0.00234 µM	124
0.00702 µM	130
0.0211 µM	141
0.0632 µM	122
0.19 µM	123
0.569 µM	125
1.71 µM	109
5.12 µM	103
15.4 µM	58.9
46.1 µM	24.7

OC(CN1CCC(Cc2ccc(F)cc2)CC1)c1ccc(Cl)cc1 (configuration not stated)
AUC of viability dose-response curve
Details	NOMO1 [2]	P12-Ichikawa [3]	SEM cells [1]
HPLM + 10% dialyzed FBS	456	449	440
RPMI 5 mM glucose + 10% FBS	455	451	451
RPMI 5 mM glucose + 10% dialyzed FBS	448	451	461

cell viability [%], SEM cells [4]
Details	HPLM + 10% dialyzed FBS	RPMI 5 mM glucose + 10% dialyzed FBS
0.000781 µM	106	116
0.00234 µM	118	125
0.00702 µM	108	115
0.0211 µM	115	129
0.0632 µM	116	126
0.19 µM	118	139
0.569 µM	117	140
1.71 µM	122	136
5.12 µM	124	125
15.4 µM	130	128
46.1 µM	129	136

COC(=O)[C@@H]1[C@H]2C[C@H]3c4[nH]c5ccccc5c4CCN3C[C@@H]2CC[C@@H]1O
Details	AUC of viability dose-response curve	cell viability [%]
NOMO1 [2], HPLM + 10% dialyzed FBS	356	–
NOMO1 [2], RPMI 5 mM glucose + 10% FBS	325	–
NOMO1 [2], RPMI 5 mM glucose + 10% dialyzed FBS	350	–
NOMO1 [5], 0.000781 µM	–	120
NOMO1 [5], 0.00234 µM	–	127
NOMO1 [5], 0.00702 µM	–	122
NOMO1 [5], 0.0211 µM	–	131
NOMO1 [5], 0.0632 µM	–	132
NOMO1 [5], 0.19 µM	–	128
NOMO1 [5], 0.569 µM	–	108
NOMO1 [5], 1.71 µM	–	41.2
NOMO1 [5], 5.12 µM	–	39.8
NOMO1 [5], 15.4 µM	–	44.5
NOMO1 [5], 46.1 µM	–	35.6
P12-Ichikawa [3], HPLM + 10% dialyzed FBS	373	–
P12-Ichikawa [3], RPMI 5 mM glucose + 10% FBS	378	–
P12-Ichikawa [3], RPMI 5 mM glucose + 10% dialyzed FBS	402	–
SEM cells [1], HPLM + 10% dialyzed FBS	440	–
SEM cells [1], RPMI 5 mM glucose + 10% FBS	441	–
SEM cells [1], RPMI 5 mM glucose + 10% dialyzed FBS	451	–

cell viability [%]
Details	HPLM + 10% dialyzed FBS	RPMI 5 mM glucose + 10% FBS	RPMI 5 mM glucose + 10% dialyzed FBS
P12-Ichikawa [6], 0.000781 µM	113	–	103
P12-Ichikawa [6], 0.00234 µM	118	–	114
P12-Ichikawa [6], 0.00702 µM	122	–	114
P12-Ichikawa [6], 0.0211 µM	116	–	124
P12-Ichikawa [6], 0.0632 µM	122	–	111
P12-Ichikawa [6], 0.19 µM	128	–	124
P12-Ichikawa [6], 0.569 µM	121	–	127
P12-Ichikawa [6], 1.71 µM	117	–	128
P12-Ichikawa [6], 5.12 µM	20.8	–	70.6
P12-Ichikawa [6], 15.4 µM	14.4	–	32.9
P12-Ichikawa [6], 46.1 µM	12.4	–	17.9
SEM cells [4], 0.000781 µM	86.1	94.7	98.6
SEM cells [4], 0.00234 µM	90.4	112	109
SEM cells [4], 0.00702 µM	102	122	108
SEM cells [4], 0.0211 µM	110	104	120
SEM cells [4], 0.0632 µM	104	110	125
SEM cells [4], 0.19 µM	110	110	124
SEM cells [4], 0.569 µM	120	135	119
SEM cells [4], 1.71 µM	115	119	133
SEM cells [4], 5.12 µM	116	120	130
SEM cells [4], 15.4 µM	120	128	133
SEM cells [4], 46.1 µM	116	125	118

Nc1nc(Cl)nc2c1ncn2[C@H]1C[C@H](O)[C@@H](CO)O1
AUC of viability dose-response curve
Details	NOMO1 [2]	P12-Ichikawa [3]	SEM cells [1]
HPLM + 10% dialyzed FBS	256	263	238
RPMI 5 mM glucose + 10% FBS	270	254	226
RPMI 5 mM glucose + 10% dialyzed FBS	257	272	212

SEM cells [4], HPLM + 10% dialyzed FBS
Details	cell viability [%]
0.000781 µM	114
0.00234 µM	119
0.00702 µM	115
0.0211 µM	133
0.0632 µM	115
0.19 µM	15.7
0.569 µM	13.9
1.71 µM	12.7
5.12 µM	11.6
15.4 µM	9.89
46.1 µM	5.05

CCCCCC[C@H]1C(=O)O[C@H](C)[C@H](NC(=O)c2cccc(NC=O)c2O)C(=O)O[C@@H](C)[C@@H]1OC(=O)CC(C)C
AUC of viability dose-response curve
Details	NOMO1 [2]	P12-Ichikawa [3]	SEM cells [1]
HPLM + 10% dialyzed FBS	444	417	476
RPMI 5 mM glucose + 10% FBS	438	403	403
RPMI 5 mM glucose + 10% dialyzed FBS	442	403	416

SEM cells [4], HPLM + 10% dialyzed FBS
Details	cell viability [%]
0.000781 µM	90.7
0.00234 µM	130
0.00702 µM	111
0.0211 µM	113
0.0632 µM	115
0.19 µM	123
0.569 µM	137
1.71 µM	111
5.12 µM	110
15.4 µM	112
46.1 µM	101
